pIC50: −log10 of the molar value.
Legend:
Ca-Ski = assay: cells; assay type: functional, cell-based; conditions: Homo sapiens;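 further: cell viability assay measuring inhibition of Ca-Ski cell growth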
Description: SANGER: Inhibition of human Ca-Ski cell growth in a cell viability assay.

DOK = assay: cells; assay type: functional, cell-based; conditions: Homo sapiens;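 further: cell viability assay read-out, values reflect inhibition of cell growth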
Description: SANGER: Inhibition of human DOK cell growth in a cell viability assay.

EB-3 = assay: cells; assay type: functional, cell-based, Homo sapiens; conditions: Homo sapiens, EB-3;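 further: human EB-3 cells, growth inhibition read out via a cell viability assay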
Description: SANGER: Inhibition of human EB-3 cell growth in a cell viability assay.

EGI-1 = assay: cells; assay type: functional, cell-based; conditions: Homo sapiens;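 further: cell viability readout used to gauge growth inhibition of EGI-1 cells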
Description: SANGER: Inhibition of human EGI-1 cell growth in a cell viability assay.

FaDu = assay: cells; assay type: functional, cell-based; conditions: Homo sapiens;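 further: cell viability readout of growth inhibition in FaDu cells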
Description: SANGER: Inhibition of human FADU cell growth in a cell viability assay.

FTC-133 = assay: cells; assay type: functional, cell-based; conditions: Homo sapiens
G-401 = assay: cells; assay type: functional, cell-based; conditions: Homo sapiens
Description: SANGER: Inhibition of human G-401 cell growth in a cell viability assay.

GP5d = assay: cells; assay type: functional, cell-based; conditions: Homo sapiens;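 further: growth inhibition of human GP5d cells, read out with a cell viability assay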
Description: SANGER: Inhibition of human GP5d cell growth in a cell viability assay.

HC-1 = assay: cells; assay type: functional, cell-based, Homo sapiens; conditions: Homo sapiens, HC-1;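 further: growth inhibition of HC-1 cells measured by a cell viability assay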
Description: SANGER: Inhibition of human HC-1 cell growth in a cell viability assay.

HCC1395 = assay: cells; assay type: functional, cell-based; conditions: Homo sapiens;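 further: growth inhibition of HCC1395 cells, read out by a cell viability assay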
Description: SANGER: Inhibition of human HCC1395 cell growth in a cell viability assay.

HCC70 = assay: cells; assay type: functional, cell-based; conditions: Homo sapiens;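 further: cell viability assay measuring how strongly the compound suppresses proliferation of HCC70 cells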
Description: SANGER: Inhibition of human HCC70 cell growth in a cell viability assay.

HO-1-N-1 = assay: cells; assay type: functional, cell-based; conditions: Homo sapiens;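 further: growth inhibition of human HO-1-N-1 cells, read out with a cell viability assay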
Description: SANGER: Inhibition of human HO-1-N-1 cell growth in a cell viability assay.

HPAF-II = assay: cells; assay type: functional, cell-based; conditions: Homo sapiens;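 further: growth inhibition of HPAF-II cells, read out with a cell viability assay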
Description: SANGER: Inhibition of human HPAF-II cell growth in a cell viability assay.

HT55 = assay: cells; assay type: functional, cell-based; conditions: Homo sapiens;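 further: cell viability readout measuring growth inhibition of human HT55 cells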
Description: SANGER: Inhibition of human HT55 cell growth in a cell viability assay.

Hs-578T = assay: cells; assay type: functional, cell-based; conditions: Homo sapiens
Description: SANGER: Inhibition of human Hs-578-T cell growth in a cell viability assay.

IGR-1 = assay: cells; assay type: functional, cell-based; conditions: Homo sapiens;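 further: growth inhibition of human IGR-1 cells, read out with a cell viability assay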
Description: SANGER: Inhibition of human IGR-1 cell growth in a cell viability assay.

J82 = assay: cells; assay type: functional, cell-based; conditions: Homo sapiens;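 further: growth inhibition of J82 cells, read out with a cell viability assay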
Description: SANGER: Inhibition of human J82 cell growth in a cell viability assay.

K052 = assay: cells; assay type: functional, cell-based, Homo sapiens; conditions: Homo sapiens, K052;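 further: Read-out from a cell viability assay, IC50 reflecting suppression of K052 cell growth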
Description: SANGER: Inhibition of human K052 cell growth in a cell viability assay.

KYSE-140 = assay: cells; assay type: functional, cell-based; conditions: Homo sapiens;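 further: cell viability assay measuring growth inhibition in human KYSE-140 cells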
Description: SANGER: Inhibition of human KYSE-140 cell growth in a cell viability assay.

KYSE-150 cell line = assay: cells; assay type: functional, cell-based; conditions: Homo sapiens;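 further: growth inhibition of human KYSE-150 cells, read out with a cell viability assay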
Description: SANGER: Inhibition of human KYSE-150 cell growth in a cell viability assay.

KYSE-510 = assay: cells; assay type: functional, cell-based; conditions: Homo sapiens;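 further: cell viability readout used to measure how strongly growth of the cell line is suppressed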
Description: SANGER: Inhibition of human KYSE-510 cell growth in a cell viability assay.

LK-2 = assay: cells; assay type: functional, cell-based; conditions: Homo sapiens;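 further: growth inhibition of LK-2 cells, read out with a viability assay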
Description: SANGER: Inhibition of human LK-2 cell growth in a cell viability assay.

LOUCY = assay: cells; assay type: functional, cell-based, Homo sapiens; conditions: Homo sapiens, LOUCY;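 further: growth inhibition of human LOUCY cells, read out with a cell viability assay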
Description: SANGER: Inhibition of human LOUCY cell growth in a cell viability assay.

M059J = assay: cells; assay type: functional, cell-based; conditions: Homo sapiens;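 further: growth inhibition of M059J cells, read out with a cell viability assay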
Description: SANGER: Inhibition of human M059J cell growth in a cell viability assay.

MC-IXC = assay: cells; assay type: functional, cell-based; conditions: Homo sapiens;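 further: growth inhibition of MC-IXC cells, read out with a cell viability assay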
Description: SANGER: Inhibition of human MC-IXC cell growth in a cell viability assay.

MDA-MB-361 = assay: cells; assay type: functional, cell-based; conditions: Homo sapiens
MDA-MB-453 = assay: cells; assay type: functional, cell-based; conditions: Homo sapiens
Description: SANGER: Inhibition of human MDA-MB-453 cell growth in a cell viability assay.

MEL-HO = assay: cells; assay type: functional, cell-based; conditions: Homo sapiens
Description: SANGER: Inhibition of human MEL-HO cell growth in a cell viability assay.

MG-63 = assay: cells; assay type: functional, cell-based; conditions: Homo sapiens;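 further: growth inhibition of human MG-63 cells, read out with a cell viability assay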
Description: SANGER: Inhibition of human MG-63 cell growth in a cell viability assay.

NCI-H1436 = assay: cells; assay type: functional, cell-based, Homo sapiens; conditions: Homo sapiens, NCI-H1436;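 further: growth suppression of human NCI-H1436 cells, determined with a cell viability readout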
Description: SANGER: Inhibition of human NCI-H1436 cell growth in a cell viability assay.

NCI-H1437 = assay: cells; assay type: functional, cell-based; conditions: Homo sapiens;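 further: growth inhibition of human NCI-H1437 cells, read out by a cell viability assay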
Description: SANGER: Inhibition of human NCI-H1437 cell growth in a cell viability assay.

NCI-H1963 = assay: cells; assay type: functional, cell-based, Homo sapiens; conditions: Homo sapiens, NCI-H1963
Description: SANGER: Inhibition of human NCI-H1963 cell growth in a cell viability assay.

NCI-H2141 = assay: cells; assay type: functional, cell-based, Homo sapiens; conditions: Homo sapiens, NCI-H2141;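 further: growth inhibition of human NCI-H2141 cells, read out with a cell viability assay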
Description: SANGER: Inhibition of human NCI-H2141 cell growth in a cell viability assay.

NCI-H2171 = assay: cells; assay type: functional, cell-based, Homo sapiens; conditions: Homo sapiens, NCI-H2171;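 further: growth inhibition of human NCI-H2171 cells, read out by a cell viability assay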
Description: SANGER: Inhibition of human NCI-H2171 cell growth in a cell viability assay.

NCI-H441 = assay: cells; assay type: functional, cell-based; conditions: Homo sapiens;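 further: growth inhibition of NCI-H441 cells, read out with a cell viability assay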
Description: SANGER: Inhibition of human NCI-H441 cell growth in a cell viability assay.

NCI-H522 = assay: cells; assay type: functional, cell-based; conditions: Homo sapiens;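 further: cell viability assay measuring growth inhibition of human NCI-H522 cells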
Description: SANGER: Inhibition of human NCI-H522 cell growth in a cell viability assay.

NCI-H596 = assay: cells; assay type: functional, cell-based; conditions: Homo sapiens;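 further: growth inhibition of NCI-H596 cells, read out with a cell viability assay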
Description: SANGER: Inhibition of human NCI-H596 cell growth in a cell viability assay.

NCI-H64 = assay: cells; assay type: functional, cell-based, Homo sapiens; conditions: Homo sapiens, NCI-H64;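 further: growth inhibition of NCI-H64 cells, read out with a cell viability assay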
Description: SANGER: Inhibition of human NCI-H64 cell growth in a cell viability assay.

OPM-2 = assay: cells; assay type: functional, cell-based, Homo sapiens; conditions: Homo sapiens, OPM-2;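 further: growth of OPM-2 cells measured with a viability assay, IC50 for suppression of proliferation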
Description: SANGER: Inhibition of human OPM-2 cell growth in a cell viability assay.

P12-Ichikawa = assay: cells; assay type: functional, cell-based; conditions: Homo sapiens
PF-382 = assay: cells; assay type: functional, cell-based, Homo sapiens; conditions: Homo sapiens, PF-382
Description: SANGER: Inhibition of human PF-382 cell growth in a cell viability assay.

RCM-1 = assay: cells; assay type: functional, cell-based; conditions: Homo sapiens;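 further: growth inhibition of the RCM-1 line, determined with a cell viability readout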
Description: SANGER: Inhibition of human RCM-1 cell growth in a cell viability assay.

RERF-LC-MS = assay: cells; assay type: functional, cell-based; conditions: Homo sapiens;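 further: growth inhibition of human RERF-LC-MS cells, read out by a cell viability assay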
Description: SANGER: Inhibition of human RERF-LC-MS cell growth in a cell viability assay.

RPMI-2650 = assay: cells; assay type: functional, cell-based; conditions: Homo sapiens
Description: SANGER: Inhibition of human RPMI-2650 cell growth in a cell viability assay.

SCC-9 = assay: cells; assay type: functional, cell-based; conditions: Homo sapiens;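 further: Read-out is a cell viability assay, with values giving inhibition of cell growth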
Description: SANGER: Inhibition of human SCC-9 cell growth in a cell viability assay.

SCLC-21H = assay: cells; assay type: functional, cell-based, Homo sapiens; conditions: Homo sapiens, SCLC-21H;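 further: growth inhibition of cultured human SCLC-21H cells, read out with a cell viability assay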
Description: SANGER: Inhibition of human SCLC-21H cell growth in a cell viability assay.

SK-OV-3 = assay: cells; assay type: functional, cell-based; conditions: Homo sapiens;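 further: growth inhibition of SK-OV-3 human cells, read out with a cell viability assay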
Description: SANGER: Inhibition of human SK-OV-3 cell growth in a cell viability assay.

SR = assay: cells; assay type: functional, cell-based, Homo sapiens; conditions: Homo sapiens, SR
Description: SANGER: Inhibition of human SR cell growth in a cell viability assay.

A2780 = assay: cells; assay type: functional, cell-based; conditions: Homo sapiens;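 further: growth inhibition of A2780 cells, read out with a cell viability assay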
Description: SANGER: Inhibition of human A2780 cell growth in a cell viability assay.

BC1 cell line = assay: SANGER: Inhibition of human BC-1 cell growth in a cell viability assay.; assay type: functional, cell-based; conditions: Homo sapiens, BC1
BXPC-3 = assay: cells; assay type: functional, cell-based; conditions: Homo sapiens;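 further: growth inhibition of human BxPC-3 cells, read out by a cell viability assay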
Description: SANGER: Inhibition of human BxPC-3 cell growth in a cell viability assay.

CAL-120 = assay: cells; assay type: functional, cell-based; conditions: Homo sapiens;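 further: cell growth inhibition, read out as cell viability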
Description: SANGER: Inhibition of human CAL-120 cell growth in a cell viability assay.

CAL-33 = assay: cells; assay type: functional, cell-based; conditions: Homo sapiens;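 further: growth inhibition of CAL-33 cells, read out with a cell viability assay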
Description: SANGER: Inhibition of human CAL-33 cell growth in a cell viability assay.

TYK-nu = assay: cells; assay type: functional, cell-based; conditions: Homo sapiens;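 further: growth inhibition of human TYK-nu cells, read out by a cell viability assay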
Description: SANGER: Inhibition of human TYK-nu cell growth in a cell viability assay.

YKG-1 = assay: cells; assay type: functional, cell-based; conditions: Homo sapiens;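 further: cell growth inhibition, read out with a viability assay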
Description: SANGER: Inhibition of human YKG-1 cell growth in a cell viability assay.

CAPAN-1 = assay: cells; assay type: functional, cell-based; conditions: Homo sapiens;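 further: growth suppression of CAPAN-1 cells, read out by a cell viability assay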
Description: SANGER: Inhibition of human CAPAN-1 cell growth in a cell viability assay.

CHP-126 = assay: cells; assay type: functional, cell-based, Homo sapiens; conditions: Homo sapiens, CHP-126
Description: SANGER: Inhibition of human CHP-126 cell growth in a cell viability assay.

CCCCCCCCCCCC1=C(O)C(=O)C=C(O)C1=O [EMBELIN]
pIC50 (Ca-Ski): 4.74
pIC50 (DOK): 4.93
pIC50 (EB-3): 4.68
pIC50 (EGI-1): 4.64
pIC50 (FaDu): 4.80
pIC50 (FTC-133): < 4.49
pIC50 (G-401): 5.08
pIC50 (GP5d): 5.07
pIC50 (HC-1): 5.27
pIC50 (HCC1395): < 4.49
pIC50 (HCC70): < 4.49
pIC50 (HO-1-N-1): 4.91
pIC50 (HPAF-II): 4.60
pIC50 (HT55): < 4.49
pIC50 (Hs-578T): 4.95
pIC50 (IGR-1): 5.27
pIC50 (J82): 4.93
pIC50 (K052): 4.54
pIC50 (KYSE-140): 5.30
pIC50 (KYSE-150 cell line): 4.92
pIC50 (KYSE-510): 5.24
pIC50 (LK-2): 4.75
pIC50 (LOUCY): 5.29
pIC50 (M059J): 4.88
pIC50 (MC-IXC): 5.27
pIC50 (MDA-MB-361): 4.71
pIC50 (MDA-MB-453): < 4.49
pIC50 (MEL-HO): 5.29
pIC50 (MG-63): 5.02
pIC50 (NCI-H1436): < 4.49
pIC50 (NCI-H1437): 5.20
pIC50 (NCI-H1963): < 4.49
pIC50 (NCI-H2141): 4.57
pIC50 (NCI-H2171): < 4.49
pIC50 (NCI-H441): 5.22
pIC50 (NCI-H522): 4.75
pIC50 (NCI-H596): 4.81
pIC50 (NCI-H64): < 4.49
pIC50 (OPM-2): < 4.49
pIC50 (P12-Ichikawa): 5.02
pIC50 (PF-382): 5.21
pIC50 (RCM-1): 4.65
pIC50 (RERF-LC-MS): 4.51
pIC50 (RPMI-2650): 5.14
pIC50 (SCC-9): < 4.49
pIC50 (SCLC-21H): < 4.49
pIC50 (SK-OV-3): 4.96
pIC50 (SR): 4.55
pIC50 (A2780): 4.88
pIC50 (BC1 cell line): 5.30
pIC50 (BXPC-3): 5.19
pIC50 (CAL-120): 4.62
pIC50 (CAL-33): 4.64
pIC50 (TYK-nu): 4.65
pIC50 (YKG-1): 5.05
pIC50 (CAPAN-1): 5.05
pIC50 (CHP-126): < 4.49

C/C(=C\c1csc(C)n1)[C@@H]1C[C@@H]2O[C@]2(C)CCC[C@H](C)[C@H](O)[C@@H](C)C(=O)C(C)(C)[C@@H](O)CC(=O)O1 [PATUPILONE]
pIC50 (Ca-Ski): 8.41
pIC50 (DOK): < 7.49
pIC50 (EB-3): < 7.49
pIC50 (EGI-1): < 7.49
pIC50 (FaDu): 7.58
pIC50 (FTC-133): 7.52
pIC50 (G-401): 8.82
pIC50 (GP5d): 8.51
pIC50 (HC-1): 8.40
pIC50 (HCC1395): < 7.49
pIC50 (HCC70): 8.32
pIC50 (HO-1-N-1): 8.78
pIC50 (HPAF-II): 7.68
pIC50 (HT55): < 7.49
pIC50 (Hs-578T): < 7.49
pIC50 (IGR-1): 9.06
pIC50 (J82): 8.85
pIC50 (K052): 8.23
pIC50 (KYSE-140): 8.91
pIC50 (KYSE-150 cell line): 9.30
pIC50 (KYSE-510): 10.13
pIC50 (LK-2): 8.31
pIC50 (LOUCY): 8.36
pIC50 (M059J): 8.87
pIC50 (MC-IXC): 8.51
pIC50 (MDA-MB-361): 7.78
pIC50 (MDA-MB-453): < 7.49
pIC50 (MEL-HO): 8.77
pIC50 (MG-63): 9.78
pIC50 (NCI-H1436): 8.11
pIC50 (NCI-H1437): 9.16
pIC50 (NCI-H1963): 7.92
pIC50 (NCI-H2141): 7.86
pIC50 (NCI-H2171): 8.02
pIC50 (NCI-H441): 8.60
pIC50 (NCI-H522): 9.20
pIC50 (NCI-H596): 7.93
pIC50 (NCI-H64): 8.08
pIC50 (OPM-2): < 7.49
pIC50 (P12-Ichikawa): 7.96
pIC50 (PF-382): 8.06
pIC50 (RCM-1): 7.82
pIC50 (RERF-LC-MS): 7.61
pIC50 (RPMI-2650): 8.68
pIC50 (SCC-9): < 7.49
pIC50 (SCLC-21H): 8.12
pIC50 (SK-OV-3): 8.83
pIC50 (SR): 8.44
pIC50 (A2780): 8.68
pIC50 (BC1 cell line): 8.70
pIC50 (BXPC-3): 8.76
pIC50 (CAL-120): 7.99
pIC50 (CAL-33): 8.82
pIC50 (TYK-nu): < 7.49
pIC50 (YKG-1): 8.91
pIC50 (CAPAN-1): 8.40
pIC50 (CHP-126): < 7.49

Reference: ChEMBL document CHEMBL1201861, “Genomics of Drug Sensitity in Cancer screening data, Wellcome Trust Sanger Institute”
